We go through 3 compounds from patent US5110935A, “New compounds which are active against the tissue forms of malaria and method of preparation” (Ire-Celltarg, S.A., priority 1988, dated 1992).

The test system of one data set is female Swiss OF1 mice. Briefly: Acute toxicity in mice after a single i.v. administration. It counts as in vivo. The conditions noted are these: for Maximum tolerated dose (MTD) / LD50: single i.v., mg PQ diphosphate equivalent/kg; for Maximum tolerated dose (MTD): weight loss not exceeding 5% during 5 days; for Fold less toxic than PQ: mice, i.v. On the procedure:
(§1) The acute toxicity in terms of a single administered dose is determined on female Swiss OF1 mice weighing 22 to 25 g. A series of dilutions of each compound is injected intravenously into groups of 10 mice (0.1 ml per 10 g of weight).
(§2) The lethal dose for 50% of mice (LD50) is determined by linear regression of the logits of the percentage of surviving animals as a function of the logarithm of the dose injected (in mg PQ diphosphate equivalent/kg) (Logit Weighted Transformation, Berkson J., 1953; J. Am. Stat. Assoc. 48, 565-599).
(§3) ^a : The products are administered i.v. to groups of 10 female Swiss
(§4) ^b : Maximum tolerated dose (MTD), defined as the highest dose
(§5) The acute toxicity in terms of a single administered dose is determined under the same conditions and according the protocol of Example 3.

Experiment in data set [1]: as above
It counts as in vivo. The conditions noted are these: mouse, in vivo, iv, single i.v., mg PQ diphosphate equivalent/kg; for MTD: weight loss not exceeding 5% during 5 days, read-out: Maximum tolerated dose (MTD). As for the experimental part:
as §1, §2, §3, §4, §5

For data set [2], the system named is Plasmodium berghei. Description: Causal prophylactic activity on OF1 mice infected with Plasmodium berghei. It counts as in vivo, P. berghei (ANKA), in Swiss OF1 mice. The conditions noted are these: for ED50 / ED100 / minimal effective dose: Plasmodium berghei, 3 h; for ED50 / ED100 / minimal effective dose / CPD50, fold lower than for PQ: iv; for ED50: read-out: CPD50, causal prophylactic dose curing 50% of the infected and treated animals; for ED100: read-out: ED100, totally curative dose; for minimal effective dose: read-out: Minimal effective dose (MED); for PQ index: ratio CPD50 of PQ/CPD50 of the compound. As for the experimental part: Primaquine and its derivatives are tested in the model of malaria in rodents employing the infection of mice with Plasmodium berghei, the sporozoites originating from infected Anopheles stephensi mosquitoes. This model, developed by Most H., Herman R. & Schoenfeld C. (1967), Am. J. Trop. med. Hyg. 16, 572-575, enables the casual prophylatic (tissue schizonticidal) activity of new therapeutic compounds to be determined.
The procedure used is that derived from Most H. & Montuori W.A. (1975), Am. J. Trop. Med. Hyg. 24, 179-189. It involves the system P. berghei (ANKA)/Anopheles stephensi/Swiss OF1 mice. The ANKA strain of P. b. berghei is maintained cyclically on Anopheles stephensi. The Swiss OF1 strain mouse is especially sensitive to P. b. berghei, which produces an invariably fatal infection.
The legs, wings and abdomen are removed from female mosquitoes (80 to 100 individuals per preparation) and the latter are then homogenized at 4° C. in MEM medium (GIBCO) containing 10% of fetal calf serum using a glass Potter. The sporozoite suspension is then purified from the mosquito debris by two successive centrifugations (2 min at 50 g and 5 min at 200 g) and the collected supernatant is stored at 4° C. After counting in a Petroff-Hausser chamber, the number of parasites is adjusted by dilution with the same cold medium to a density of 2×10^5 sporozoites/ml.
The causal prophylactic activity of the compounds, that is to say the dose enabling 50% of the infected animals to be cured (CPD50) is obtained by analysis of the logits of the response (expressed as a % LTS) as a function of the dose (mg PQ/kg).
A volume of 0.5 ml of the suspension containing 10^5 sporozoites is injected i.v. into female Swiss OF1 mice weighing 20 to 25 g, used for the therapeutic tests. 1.2. Chemotherapeutic treatments
Groups of 20 to 25 mice, infected as described above, are treated with a single intravenous injection of primaquine diphosphate (PQ) or of its two derivatives in hydrochloride form, three hours after inoculation of the sporozoites. The volume injected is adjusted according to the weight of the mouse, on the basis of 0.25 ml for a weight of 25 g. The compounds are diluted in phosphatebuffered saline (PBS), pH 7.0, and the pH is adjusted to 7.0. Infected but untreated mice (5 per group), receive the buffer alone and serve to monitor the infectivity of the sporozoites.
The experimental mice are kept for a period of 50 days. The development of the parasitemia is followed by daily examination of blood smears stained for 60 min with 5% Giemsa in Sorensen buffer at pH 7.2, from day 5 up to day 15. The number of infected animals can thus be determined.
The animals infected using P. berchei sporozoites are treated three hours later with a single i.v. injection of the compounds. This test enables the casual prophylactic activity of the compounds, that is the dose enabling 50% of the infected animals to be cured (CPD50), to be defined. The dose is always expressed as mg of PQ diphosphate per kg.
The animals infected using P. berghei sporozoites are treated three hours later with a single i.v. injection of the compounds. This test enables the casual prophylactic activity of the compounds, that is the dose enabling 50% of the infected animals to be cured (CPD50), to be defined. The dose is always expressed as mg of PQ diphosphate per kg.

Another data set concerns human red cells. Briefly: Methemoglobin production in human red cells. The conditions noted are these: for Methemoglobin (% of total hemoglobin concentration): 1 hour, 37° C. It counts as cell-based.
The next data set concerns human erythrocytes. The conditions noted are these: for Concentration combined with erythrocytes (% initial concentration): human red cells 10^9/ml, 100 μg/ml.
Data set [3] concerns Plasmodium berghei. Briefly: Therapeutic index in mice. Format: in vivo, P. berghei. The conditions noted are these: i.v.; for Therapeutic index (TI): ratio of LD50 to CPD50, mice; for Therapeutic index, fold higher than that of PQ: mice. The source says:
The therapeutic index is defined as the ratio of the toxicity, expressed as LD50, to the therapeutic activity, expressed as CPD50, in mice.
^b : The therapeutic index (TI) is the ratio of LD50 to […]

A short description of data set [4]: Hemolytic effect on human red cells. Format: cell-based. The conditions noted are these: human, red cells, pH 7.4, 1 hour, 37° C., read-out: Hemolysis (% of total hemoglobin concentration); for hemolysis at 1 h, 1000 µM: 1 mM; for hemolysis at 1 h, 2000 µM: 2 mM; for hemolysis at 1 h, 5000 µM: 5 mM; for hemolysis at 1 h, 10000 µM: 10 mM.
Description: Two important toxic effects of PQ were assessed on the two derivatives: the hemolytic effect and the conversion of hemoglobin to methemoglobin.
A+ blood is washed twice in 0.15M phosphatebuffered saline at pH 7.4 containing 20 mM glucose (GPBS), and then resuspended at a concentration of 50% in the same buffer. To this suspension, an equal volume of compound dissolved in GPBS at different concentrations (test), or of GPBS (control) is added. The final hematocrit of the suspension is 25%. After 60 minutes' incubation at 37° C., the concentration of hemoglobin and methemoglobin is determined on the total suspension, and the concentration of hemoglobin present in the supernatant after centrifugation (extracellular hemoglobin) is determined, by the cyanmethemoglobin and benzidine methods (Fairbanks V.F., 1976, in "Fundamentals of Clinical Chemistry, M.W. Tietz Editors, Saunders").
Where [5] appears, read: single i.v. three hours after sporozoites, mg PQ diphosphate equivalent/kg.

“And” between values parts separate entries of the source, which are not always exact repeats. Equal entries are not always repeated. Where two headings read alike, the source gives them in different places.

Description for human erythrocytes: Fresh human blood (A+) on CPDA is washed twice in RPMI medium containing 20 mM glucose at pH 7.4, and then resuspended in the same medium at 37° C. to obtain a 20% suspension of red cells (2×10^9 erythrocytes/ml). To 1 ml of this suspension, 1 ml of a solution of PQ or derivatives at a concentration of 0.250 mM in the same medium at 37° C. is added.
After different incubation times at 37° C., 0.5 ml of sample is withdrawn and then transferred to an Eppendorf tube containing 0.4 ml of silicone oil (Merck, density 1.06 g/ml).
After centrifugation for 30 seconds at 12,000 g, the supernatant and the silicone oil are removed, while the cells in the pellet are lyzed by adding 0.5 ml of water. The quinoline compound present in combination with the cell lysate is then extracted by precipitation of the cell proteins with acetonitrile (0.5 ml) and thereafter analyzed by HPLC under the standard conditions.
The intracellular concentration of quinoline derivative is obtained by subtracting the concentration of compound present in the extracellular medium from the total concentration in the cell lysate. The contaminating extracellular volume is measured using tritiated inulin.

The term MTD denotes the highest dose tested that stayed within the study's limit of toxicity. What is called minimal effective dose is the lowest level tested that produced the effect sought. `COc1cc(NC(C)CCCN)c2ncccc2c1` (centres unmarked) [Primaquine, 6-methoxy-8-(4-amino-1-methylbutylamino)quinoline, reference compound]: the “Maximum tolerated dose (MTD)” value with female Swiss OF1 mice is 24 (2.1) mg/kg. In addition, the MTD in data set [1] came out at 24 mg/kg. In the data set on Plasmodium berghei [2], the ED50 stood at 18.8 mg/kg, the ED100 was roughly 54 mg/kg, the minimal effective dose came to 6.5 mg/kg and the PQ index is reported as 1.00. Also, in the data set with Plasmodium berghei [2] (setting [5]), the “CPD50, causal prophylactic dose curing 50% of the infected and treated animals” value was 18.8 (1.3) mg/kg; the “ED100, totally curative dose” value was “TOX”. Moreover, in the data set on human red cells (1 mM), the “Methemoglobin (% of total hemoglobin concentration)” value is on record as 1.2 (0.5) %. The “Methemoglobin (% of total hemoglobin concentration)” value in the data set on human red cells (2 mM) was 3.4 (1.8) %. For the same compound, in the data set with human red cells (5 mM), the “Methemoglobin (% of total hemoglobin concentration)” value is recorded as 5.8 (0.2) %. Besides, the “Methemoglobin (% of total hemoglobin concentration)” value in the data set with human red cells (10 mM) is 11.5 (4.2) %. For the same compound, in the data set on human red cells (10 mM, listed as PQ), the “Methemoglobin (% of total hemoglobin concentration)” value is listed as 11.5%. Besides, the “Time for which concentration in red cells is maintained” value in the data set with human erythrocytes is recorded as “at least one hour”. In addition, the “Concentration combined with erythrocytes (% initial concentration)” value in the data set with human erythrocytes (5 min) is 17.7 (1.2) %. Moreover, the “Concentration combined with erythrocytes (% initial concentration)” value with human erythrocytes (5 min, listed as PQ) was found to be 18%. Further, the “Concentration combined with erythrocytes (% initial concentration)” value in the data set on human erythrocytes (10 min) was 18.0 (3.4) %. Also, the “Concentration combined with erythrocytes (% initial concentration)” value in the data set with human erythrocytes (60 min) is given as 18.8 (0.2) %. Moreover, the “Accumulation in erythrocytes” value with human erythrocytes (not told) is on record as “taken up rapidly by erythrocytes”. In addition, the “Therapeutic index (TI)” value in the data set on Plasmodium berghei [3] turned out to be 1.7. Also, in data set [4], the hemolysis at 1 h, 1000 µM turned out to be 2.1%; the hemolysis at 1 h, 2000 µM came to 2.3%; the hemolysis at 1 h, 5000 µM was found to be 2.8%; the hemolysis at 1 h, 10000 µM amounted to 4.7%.

With `COc1cc(NC(C)CCCNC(=O)CC[C@H](N)C(=O)O)c2ncccc2c1` (stereo partly drawn) [gGLU-PQ, N-(γ-L-glutamyl)primaquine], in the data set on female Swiss OF1 mice, the “Fold less toxic than PQ” value was “at least 5 -fold”, the LD50 is listed as 169 (9) mg/kg and the “Maximum tolerated dose (MTD)” value is listed as 117 (13) mg/kg. Besides, in data set [1], the LD50 is 169 mg/kg and the MTD is 117 mg/kg. In addition, in the data set with Plasmodium berghei [2] (setting [5]), the ED50 came out at 8.7 mg/kg; the ED100 was determined as 24 mg/kg; the minimal effective dose worked out at 3.2 mg/kg; the “CPD50, causal prophylactic dose curing 50% of the infected and treated animals” value was 8.7 (0.7) mg/kg. Besides, the “ED100, totally curative dose” value in the data set with Plasmodium berghei [2] (setting [5]) is 24.2 (9.8) mg/kg. In the data set on Plasmodium berghei [2], the “CPD50, fold lower than for PQ” value is 22 -fold and the PQ index amounted to 2.15. For the same compound, the “Activity compared with PQ” value in the data set on Plasmodium berghei [2] (mouse, in vivo) is “at least twice as active as PQ”. Further, in the data set with human red cells (1 mM), the “Methemoglobin (% of total hemoglobin concentration)” value was 1.4 (0.0) %. In the data set with human red cells (5 mM), the “Methemoglobin (% of total hemoglobin concentration)” value is on record as 5.3 (0.0) %. The “Accumulation in erythrocytes” value in the data set with human erythrocytes (not told) was “not accumulated in erythrocytes”. In the data set with Plasmodium berghei [3], the “Therapeutic index, fold higher than that of PQ” value is “at least 11 -fold”; the “Therapeutic index (TI)” value was > 19 and 19.4. For the same compound, in data set [4], the hemolysis at 1 h, 1000 µM came to 0.27% and the hemolysis at 1 h, 5000 µM was 0.58%.

Turning to `COc1cc(NC(C)CCCNC(=O)[C@@H]2CCC(=O)N2)c2ncccc2c1` (stereo partly drawn) [pGLU-PQ, N-(α-L-pyroglutamyl)primaquine], in the data set with female Swiss OF1 mice, the “Fold less toxic than PQ” value is on record as “at least 5 -fold”, the LD50 is recorded as 159 (6) mg/kg and the “Maximum tolerated dose (MTD)” value is 126 (13) mg/kg. Also, in data set [1], the LD50 was 159 mg/kg and the MTD came out at 126 mg/kg. Besides, in the data set on Plasmodium berghei [2] (setting [5]), the ED50 is 10 mg/kg; the ED100 was 22 mg/kg; the minimal effective dose was determined as 4.6 mg/kg; the “CPD50, causal prophylactic dose curing 50% of the infected and treated animals” value is reported as 10.0 (0.7) mg/kg. Besides, the “ED100, totally curative dose” value in the data set on Plasmodium berghei [2] (setting [5]) was 21.8 (5.7) mg/kg. Also, in the data set with Plasmodium berghei [2], the “CPD50, fold lower than for PQ” value was 1.9 -fold and the PQ index is 1.87. Further, the “Activity relative to PQ, fold as active” value in the data set on Plasmodium berghei [2] (model of malaria in mice) is recorded as “at least 1.9 -fold”. Further, the “Methemoglobin (% of total hemoglobin concentration)” value with human red cells (1 mM) is listed as 0.9 (0.1) %. The “Methemoglobin (% of total hemoglobin concentration)” value with human red cells (2 mM) is on record as 2.2 (0.9) %. Further, the “Methemoglobin (% of total hemoglobin concentration)” value with human red cells (5 mM) is recorded as 3.9 (0.0) %. For the same compound, the “Methemoglobin (% of total hemoglobin concentration)” value with human red cells (10 mM) is on record as 6.0 (0.2) %. Further, the “Oxidation of hemoglobin, times less than PQ” value in the data set on human red cells (same concentration as PQ (10 mM)) is listed as 1.5 times less. Moreover, the “Time to maximum level in erythrocytes” value in the data set with human erythrocytes (not told) was 60 min. Moreover, the “Therapeutic index, fold higher than that of PQ” value with Plasmodium berghei [3] was 9 -fold. Moreover, in data set [4], the hemolysis at 1 h, 1000 µM was 0.32%; the hemolysis at 1 h, 2000 µM was found to be 0.24%; the hemolysis at 1 h, 5000 µM amounted to 0.44%; the hemolysis at 1 h, 10000 µM turned out to be 2.34%.
